# In patent US10508107B2, “Morpholine derivative” (Hoffmann-La Roche Inc., priority 2016, dated 2019):
# Where two headings read alike, the source gives them in different places.
# Assays:
# human DAT = human DAT (Homo sapiens (Human), UniProt Q01959); experiment: Binding to dopamine transporter (DAT) in vitro, [3H]-WIN35,428 SPA; settings: for Ki: [3H]-WIN35,428 radioligand; for DAT selectivity ratio versus hTAAR1 EC50: DAT Ki / hTAAR1 EC50
# Protocol: Binding to dopamine transporter (DAT) in vitro. Human embryonic kidney (HEK) 293 cells (Invitrogen, Zug, Switzerland) stably transfected with human DAT were cultured. The cells were collected and washed three times with phosphate-buffered saline (PBS). The pellets were frozen at −80° C. The pellets were then resuspended in 400 ml of 20 mM HEPES-NaOH, pH 7.4, that contained 10 mM EDTA at 4° C. After homogenization with a Polytron (Kinematica, Lucerne,
# Switzerland) at 10000 rotations per minute (rpm) for 15 s, the homogenates were centrifuged at 48000×g for 30 min at 4° C. Aliquots of the membrane stocks were frozen at −80° C. All assays were performed at least three times. The test compounds were diluted in […] of binding buffer (252 mM NaCl, 5.4 mM KCl, 20 mM Na2HPO4, 3.52 mM KH2PO4, pH 7.4) and 10 point dilution curves were made and transferred to 96-well white polystyrene assay plates (Sigma-Aldrich, Buchs, Switzerland). […] Twenty microliters of binding buffer alone in the assay plate defined the total binding, whereas binding in the presence of 10 μM indatraline defined nonspecific binding. Frozen DAT membrane stocks were thawed and resuspended to a concentration of approximately 0.04 mg protein/ml binding buffer (1:1 diluted in H2O) using a polytron tissue homogenizer. The membrane homogenates (40 μg/ml) were then lightly mixed for 5-30 min with polyvinyl toluene […] wheat germ agglutinin-coated scintillation proximity assay (WGASPA; Amersham Biosciences) beads at 7.7 mg beads/ml homogenate. One hundred thirty microliters of the membrane/bead mixture were added to each well of the assay plate that contained radioligand and test compounds (final volume in each well, 200 μl) to start the assay, which was incubated for approximately 2 h at room temperature with agitation. The assay plates were then counted in the PVT SPA counting mode of a Packard Topcount. […] Non-linear regression was used to fit the data to sigmoid curves and determine IC50 values for binding and uptake. Ki values for binding and uptake were calculated using the following Cheng-Prusoff equation: Ki=IC50/(1+[S]/Km).
# human TAAR1 = human TAAR1 (Homo sapiens (Human), UniProt Q96RJ0); experiment: cAMP functional assay in HEK293 cells expressing human TAAR1; format: cell-based; settings: for hTAAR1 efficacy*: % agonist activity, β-phenylethylamine = 100% agonism; for EC50: cAMP, HEK293 cells expressing human TAAR1, read-out: hTAAR1 EC50
# Protocol: For the construction of expression plasmids the coding sequences of human TAAR 1 were amplified from genomic DNA essentially as described by Lindemann et al.[14]. The Expand High Fidelity PCR System (Roche Diagnostics) was used with 1.5 mM Mg^2+ and purified PCR products were cloned into pCR2.1-TOPO cloning vector (Invitrogen) following the instructions of the manufacturer. PCR products were subcloned into the pIRESneo2 vector (BD Clontech, Palo Alto, Calif.), and expression vectors were sequence verified before introduction in cell lines.
# HEK293 cells (ATCC # CRL-1573) were cultured essentially as described by Lindemann et al. (2005). For the generation of stably transfected cell lines HEK293 cells were transfected with the pIRESneo2 expression plasmids containing the TAAR coding sequences (described above) with Lipofectamine 2000 (Invitrogen) according to the instructions of the manufacturer, and 24 hrs post transfection the culture medium was supplemented with 1 mg/ml G418 (Sigma, Buchs, Switzerland). After a culture period of about 10 d clones were isolated, expanded and tested for responsiveness to trace amines (all compounds purchased from Sigma) with the cAMP Biotrak Enzyme immunoassay (EIA) System (Amersham) following the non-acetylation EIA procedure provided by the manufacturer.
# cAMP measurements were performed as described previously (Revel et al., Proc. Natl. Acad. Sci. USA 2011, 108, 8485-8490). In brief, cells that expressed human TAAR1 were plated on 96-well plates (BIOCOAT 6640; Becton Dickinson, Allschwil, Switzerland) and incubated for 20 h at 37° C. Prior to stimulation of the cells with a broad concentration range of agonists for 30 min at 37° C., the cells were washed with PBS and preincubated with PBS that contained 1 mM 3-isobutyl-1-methylxanthine for 10 min at 37° C. and 5% CO2. Stimulation with 0.2% DMSO was set as the basal level, and the effect of 30 μM β-PEA was set as the maximal response. Subsequently, the cells were lysed, and cAMP assays were performed according to the manufacturer's instructions (cAMP kit; Upstate/Millipore, Schaffhausen, Switzerland). Finally, the plates were read with a luminometer (1420 Multilabel counter; PerkinElmer, Schwerzenbach, Switzerland), and the amount of cAMP was calculated. The results were obtained from at least three independent experiments. Experiments were run in duplicate or triplicate. EC50 values are presented as mean ±standard deviation (in μM).
# hERG potassium channel = hERG potassium channel (Homo sapiens (Human), UniProt Q12809); experiment: hERG whole-cell patch-clamp in stably transfected CHO cells; format: cell-based; settings: for selectivity ratio: pH 7.4, hERG IC20 / hTAAR1 EC50, read-out: hERG selectivity ratio versus hTAAR1 EC50; for IC50: patch-clamp, CHO cells, 36±1° C.
# Protocol: The whole-cell patch-clamp technique was used to investigate the effects of the test items on hERG (human-ether-a-go-go related gene) potassium channels in stably transfected CHO cells near physiological temperature (36±1° C.). The effects of compounds on hERG K^+-current parameters were evaluated at 4 concentrations (0.3-3-30-300 μM) in at least 3 CHO cells stably expressing the hERG channel. For electrophysiological measurements cells were seeded onto 35 mm sterile culture dishes containing 2 ml culture medium without Hygromycin B. Cells were cultivated at a density that enabled single cells (without visible connections to neighbouring cells) to be measured. Cells were incubated at 37° C. in a humidified atmosphere with 5% CO2 (rel. humidity about 95%). The cells were continuously maintained in and passaged in sterile culture flasks containing nutrient mixture F-12 (DMEM/F-12 with L-Glutamine) supplemented with 10% foetal bovine serum and 10% penicillin/streptomycin solution. […] The 35 mm culture dishes upon which cells were seeded at a density allowing single cells to be recorded were placed on the dish holder of the microscope and continuously perfused (at approximately 1 ml/min) with the bath solution (sodium chloride 150 mM, potassium chloride 4 mM, calcium chloride 1.2 mM, magnesium chloride 1 mM, HEPES 10 mM, pH (NaOH) 7.4) at near physiological temperature (36±1° C.). After formation of a Gigaohm seal between the patch electrodes and individual hERG stably transfected CHO cells (pipette resistance range: 2.0 MΩ-7.0 Mω; seal resistance range: >1 Gω) the cell membrane across the pipette tip was ruptured to assure electrical access to the cell interior (whole-cell patch-configuration). In case the quality of the seal was poor, the process of seal formation was repeated with a different cell and a new pipette. […] This voltage protocol was run at least 10 times at intervals of 10 s. If current density was judged to be too low for measurement, another cell was recorded. […] During wash-in of the test item the voltage protocol indicated above was run continuously again at 10 s intervals until the steady-state level of block was reached. The four test item concentrations of the compound were applied sequentially to 3 cells in a cumulative manner. […] Based on the IC50 value the IC20 was estimated. Each concentration of the test item was analyzed in three experiments (n=3).
# [1] = estimated based on the IC50 value
# [2] = human, CHO cells stably expressing hERG
# [3] = human, CHO cells stably expressing hERG, pH 7.4, estimated based on the IC50 value
# Sequence of hERG potassium channel (Q12809 whole entry): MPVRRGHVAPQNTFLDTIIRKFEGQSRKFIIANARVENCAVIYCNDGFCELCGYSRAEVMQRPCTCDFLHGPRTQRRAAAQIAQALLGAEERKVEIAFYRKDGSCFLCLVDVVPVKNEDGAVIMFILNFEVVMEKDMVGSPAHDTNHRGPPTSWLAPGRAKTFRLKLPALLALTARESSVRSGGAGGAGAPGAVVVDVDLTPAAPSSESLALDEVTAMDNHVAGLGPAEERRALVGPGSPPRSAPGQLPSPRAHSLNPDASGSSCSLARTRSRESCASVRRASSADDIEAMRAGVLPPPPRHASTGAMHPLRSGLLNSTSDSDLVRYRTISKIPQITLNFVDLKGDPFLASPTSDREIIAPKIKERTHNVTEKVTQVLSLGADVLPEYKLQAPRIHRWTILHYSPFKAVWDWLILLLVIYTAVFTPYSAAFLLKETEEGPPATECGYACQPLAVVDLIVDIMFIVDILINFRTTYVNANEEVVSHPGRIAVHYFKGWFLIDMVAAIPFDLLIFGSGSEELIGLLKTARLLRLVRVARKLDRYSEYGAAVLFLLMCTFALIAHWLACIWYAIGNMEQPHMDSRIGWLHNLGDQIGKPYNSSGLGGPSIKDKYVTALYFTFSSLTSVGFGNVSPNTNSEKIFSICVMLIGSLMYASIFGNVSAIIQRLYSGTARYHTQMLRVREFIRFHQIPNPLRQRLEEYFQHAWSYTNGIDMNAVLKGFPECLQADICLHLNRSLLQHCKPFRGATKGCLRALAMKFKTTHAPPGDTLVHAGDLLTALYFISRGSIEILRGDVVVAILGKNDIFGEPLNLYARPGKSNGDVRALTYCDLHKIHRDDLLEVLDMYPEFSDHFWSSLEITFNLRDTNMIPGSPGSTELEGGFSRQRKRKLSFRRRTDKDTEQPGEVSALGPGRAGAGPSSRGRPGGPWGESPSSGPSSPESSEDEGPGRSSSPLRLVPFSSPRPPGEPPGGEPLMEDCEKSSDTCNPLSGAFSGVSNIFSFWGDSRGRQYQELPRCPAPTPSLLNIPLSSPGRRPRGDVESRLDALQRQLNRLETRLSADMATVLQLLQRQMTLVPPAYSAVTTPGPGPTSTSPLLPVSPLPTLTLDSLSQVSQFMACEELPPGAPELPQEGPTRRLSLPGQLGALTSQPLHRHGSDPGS
# Sequence of human TAAR1 (Q96RJ0 whole entry): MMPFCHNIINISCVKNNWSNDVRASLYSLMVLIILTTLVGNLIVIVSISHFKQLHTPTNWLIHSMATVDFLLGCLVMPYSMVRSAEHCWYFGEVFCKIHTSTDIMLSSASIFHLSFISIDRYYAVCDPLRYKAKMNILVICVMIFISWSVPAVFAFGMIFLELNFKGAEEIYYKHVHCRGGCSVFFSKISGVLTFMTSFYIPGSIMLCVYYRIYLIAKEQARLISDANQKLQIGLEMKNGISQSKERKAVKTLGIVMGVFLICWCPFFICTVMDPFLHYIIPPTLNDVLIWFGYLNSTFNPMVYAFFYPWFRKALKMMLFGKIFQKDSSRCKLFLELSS
# Sequence of human DAT (Q01959 whole entry): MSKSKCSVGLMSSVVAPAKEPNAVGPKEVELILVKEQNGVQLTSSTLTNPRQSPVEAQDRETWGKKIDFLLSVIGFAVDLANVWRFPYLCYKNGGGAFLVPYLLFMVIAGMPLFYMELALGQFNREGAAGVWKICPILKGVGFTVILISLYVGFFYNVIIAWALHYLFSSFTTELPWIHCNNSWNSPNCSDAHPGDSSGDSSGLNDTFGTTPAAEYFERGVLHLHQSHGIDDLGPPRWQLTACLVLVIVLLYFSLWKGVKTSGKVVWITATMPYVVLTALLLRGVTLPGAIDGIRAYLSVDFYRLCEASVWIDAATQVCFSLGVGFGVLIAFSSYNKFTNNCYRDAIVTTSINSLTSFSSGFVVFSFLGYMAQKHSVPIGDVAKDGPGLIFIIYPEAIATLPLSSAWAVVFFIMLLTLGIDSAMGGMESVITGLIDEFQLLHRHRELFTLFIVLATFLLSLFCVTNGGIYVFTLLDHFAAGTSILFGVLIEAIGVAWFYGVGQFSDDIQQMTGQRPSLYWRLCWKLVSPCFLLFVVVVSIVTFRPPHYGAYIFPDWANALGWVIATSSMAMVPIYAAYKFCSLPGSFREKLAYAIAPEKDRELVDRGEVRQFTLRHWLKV
Structure (SMILES),Ratio DAT Ki/hTAAR1 EC50 (human DAT),Ki (human DAT) [µM],hTAAR1 efficacy* (human TAAR1) [%],EC50 (human TAAR1) [µM],Ratio hERG IC20/hTAAR1 EC50 (hERG potassium channel),IC20 (hERG potassium channel; [1]) [µM],selectivity ratio (hERG potassium channel; [2]),IC50 (hERG potassium channel) [µM],EC50 (human TAAR1; listed as example 18) [µM],IC20 (hERG potassium channel; [3]) [µM],EC50 (human TAAR1; listed as example 15) [µM],DAT selectivity ratio versus hTAAR1 EC50 (human DAT) [fold],Ki (human DAT; listed as example 5) [µM],Ki (human DAT; listed as example 1) [µM],functional activity at hTAAR1 (human TAAR1; in vitro),EC50 (human TAAR1; listed as example 10) [µM]
"O=C(Nc1ccc([C@H]2CNCCO2)cc1)c1ccc(OCC(F)(F)F)nc1 [Example 3, N-[4-[(2S)-Morpholin-2-yl]phenyl]-6-(2,2,2-trifluoroethoxy)pyridine-3-carboxamide]",462,17.4,45,0.0377,52,1.97,52,9.84,–,–,–,–,–,–,–,–
"Cc1cc(C(=O)Nc2ccc([C@H]3CNCCO3)cc2)cc(C)n1 [Example 18, 2,6-Dimethyl-N-[4-[(2S)-morpholin-2-yl]phenyl]pyridine-4-carboxamide]",>32,> 26.1,63,0.827,177,–,–,712,0.827,147,–,–,–,–,–,–
"Cc1c(C(=O)Nc2ccc([C@H]3CNCCO3)cc2)n[nH]c1-c1ccccc1 [Example 8, 4-Methyl-N-[4-[(2S)-morpholin-2-yl]phenyl]-5-phenyl-1H-pyrazole-3-carboxamide]",90,9.77,33,0.109,28,3.01,28,10.8,–,–,–,–,–,–,–,–
"O=C(Nc1ccc([C@H]2CNCCO2)cc1)c1coc(-c2ccccc2)n1 [Example 15, N-[4-[(2S)-Morpholin-2-yl]phenyl]-2-phenyl-1,3-oxazole-4-carboxamide]",>39,> 26.1,35,0.663,4,2.4,4,9.65,–,–,0.663,–,–,–,–,–
"O=C(Nc1ccc([C@H]2CNCCO2)cc1)c1cc(Cl)nc(Cl)c1 [Example 7, 2,6-Dichloro-N-[4-[(2S)-morpholin-2-yl]phenyl]pyridine-4-carboxamide]",9,0.79,57,0.0849,43,3.67,43,11.4,–,3.57,–,9,–,–,–,–
"O=C(Nc1ccc([C@H]2CNCCO2)cc1)c1ccnc(Cl)c1 [Example 5, 2-Chloro-N-[4-[(2S)-morpholin-2-yl]phenyl]pyridine-4-carboxamide]",23,1.52,40,0.0656,338,–,–,81.7,–,22.2,–,23,1.5,–,–,–
"CCc1[nH]nc(C(=O)Nc2ccc([C@H]3CNCCO3)cc2)c1C [Example 1, 5-Ethyl-4-methyl-N-[4-[(2S)-morpholin-2-yl]phenyl]-1H-pyrazole-3-carboxamide]",–,27.5,42,–,–,36.2,–,217,–,–,–,–,–,27.5,partial agonist,–
"N#Cc1ccc(C(=O)Nc2ccc([C@H]3CNCCO3)cc2)cn1 [Example 10, 6-Cyano-N-[4-[(2S)-morpholin-2-yl]phenyl]pyridine-3-carboxamide]",62,11.3,38,0.184,31,5.78,31,31.7,–,–,–,–,–,–,–,0.184
